Experimental data: patent US20100285963A1, “SUBSTITUTED FLUOROALKOXYPHENYLSULFONYLUREAS” (priority 2001, published 2010)

Legend:
weeds [1] = assay: Pre-emergence test (greenhouse), damage to weeds; assay type: in vivo; conditions: for activity against weeds: soil sprayed 24 hours after sowing, rated after three weeks as % damage vs untreated control
Experimental: (§1) Solvent: 5 parts by weight of acetone
(§2) Emulsifier: 1 part by weight of alkylaryl polyglycol ether
To produce a suitable preparation of active compound, 1 part by weight of active compound is mixed with the stated amount of solvent, the stated amount of emulsifier is added and the concentrate is diluted with water to the desired concentration.
Seeds of the test plants are sown in normal soil. After 24 hours, the soil is sprayed with the preparation of active compounds such that the particular amount of active compound desired is applied per unit area. The concentration of active compound in the spray liquor is chosen such that the particular amount of active compound desired is applied in 1000 liters of water per hectare.
After three weeks, the degree of damage to the plants is rated in % damage in comparison to the development of the untreated control. The figures denote: • 0%=no effect (like untreated control) • 100%=total destruction

weeds [2] = assay: Post-emergence test (greenhouse), damage to weeds; assay type: in vivo; conditions: for activity against weeds: test plants of 5-15 cm sprayed, rated after three weeks as % damage vs untreated control
Experimental: as §1, §2
To product a suitable preparation of active compound, 1 part by weight of active compound is mixed with the stated amount of solvent, the stated amount of emulsifier is added and the concentrate is diluted with water to the desired concentration.
Test plants of a height of 5-15 cm are sprayed with the preparation of active compound such that the particular amounts of active compound desired are applied per unit area. The concentration of the spray liquor is chosen such that the particular amounts of active compound desired are applied in 10001 of water/ha.
After three weeks, the degree of damage to the plants is rated in % damage in comparison to the development of the untreated control.
The figures denote: • 0%=no effect (like untreated control) • 100%=total destruction

[3] = 60 g of a.i./ha, after three weeks
[4] = 250 g of a.i./ha, after three weeks
[5] = 30 g of a.i./ha, after three weeks, Table B10
[6] = 60 g of a.i./ha, after three weeks, Table A7
[7] = 30 g of a.i./ha, after three weeks, Table B13
[8] = 30 g of a.i./ha, after three weeks, Table B11

Structure (SMILES): COc1nc(C)nc(NC(=O)NS(=O)(=O)c2c(OCCF)cccc2C(F)(F)F)n1 [Example 3]
- activity against weeds (weeds [1]): very strong activity
- activity against weeds (weeds [2]): very strong activity

Structure (SMILES): CN(C)c1nc(NC(=O)NS(=O)(=O)c2c(OCCF)cccc2C(F)(F)F)nc(OCC(F)(F)F)n1 [(22)]
- % damage Alopecurus (weeds [2]; [3]): 90%
- % damage Amaranthus (weeds [2]; [3]): 100%
- % damage Galium (weeds [2]; [3]): 95%
- % damage Ipomoea (weeds [2]; [3]): 100%
- % damage Setaria (weeds [2]; [3]): 95%
- % damage Sinapis (weeds [2]; [3]): 95%

Structure (SMILES): COc1cc(Cl)nc(NC(=O)NS(=O)(=O)c2c(OCCF)cccc2C(F)(F)F)n1 [Example 20]
- activity against weeds (weeds [1]): very strong activity
- activity against weeds (weeds [2]): very strong activity

Structure (SMILES): COc1cc(Cl)nc(NC(=O)NS(=O)(=O)c2c(C)cccc2OCCCF)n1 [Example 14]
- activity against weeds (weeds [1]): very strong activity
- activity against weeds (weeds [2]): very strong activity

Structure (SMILES): COc1nc(NC(=O)NS(=O)(=O)c2c(C)cccc2OCCCF)nc(OC)n1 [Example 15]
- activity against weeds (weeds [1]): very strong activity
- activity against weeds (weeds [2]): very strong activity

Structure (SMILES): CCCc1cccc(OCCF)c1S(=O)(=O)NC(=O)Nc1nc(OC)cc(OC)n1 [(26)]
- % damage Alopecurus (weeds [1]; [4]): 100%
- % damage Amaranthus (weeds [1]; [4]): 100%
- % damage Avena fatua (weeds [1]; [4]): 90%
- % damage Galium (weeds [1]; [4]): 95%
- % damage Setaria (weeds [1]; [4]): 100%
- % damage Xanthium (weeds [1]; [4]): 95%
- % damage Abutilon (weeds [2]; [4]): 100%
- % damage Alopecurus (weeds [2]; [4]): 95%
- % damage Amaranthus (weeds [2]; [4]): 100%
- % damage Avena fatua (weeds [2]; [4]): 90%
- % damage Galium (weeds [2]; [4]): 90%
- % damage Setaria (weeds [2]; [4]): 90%
- % damage Sinapis (weeds [2]; [4]): 95%

Structure (SMILES): COc1nc(C)nc(NC(=O)NS(=O)(=O)c2c(C)cccc2OCCCF)n1 [(13)]
- % damage Abutilon (weeds [2]; [5]): 100%
- % damage Alopecurus (weeds [2]; [5]): 90%
- % damage Amaranthus (weeds [2]; [5]): 100%
- % damage Ipomoea (weeds [2]; [5]): 90%
- % damage Lolium (weeds [2]; [5]): 90%
- % damage Matricaria (weeds [2]; [5]): 100%
- % damage Stellaria (weeds [2]; [5]): 100%

Structure (SMILES): COc1nc(NC(=O)NS(=O)(=O)c2c(OCCF)cccc2C(F)(F)F)nc(OC)n1 [(21)]
- % damage Abutilon (weeds [1]; [6]): 90%
- % damage Alopecurus (weeds [1]; [6]): 90%
- % damage Amaranthus (weeds [1]; [6]): 95%
- % damage Galium (weeds [1]; [6]): 95%
- % damage Setaria (weeds [1]; [6]): 100%
- % damage Sinapis (weeds [1]; [6]): 100%
- % damage Avena fatua (weeds [2]; [7]): 100%
- % damage Datura (weeds [2]; [7]): 100%
- % damage Lolium (weeds [2]; [7]): 100%
- % damage Matricaria (weeds [2]; [7]): 100%
- % damage Solanum (weeds [2]; [7]): 100%

Structure (SMILES): CCCc1cccc(OCCCF)c1S(=O)(=O)NC(=O)Nc1nc(C)nc(OC)n1 [Example 7]
- activity against weeds (weeds [1]): very strong activity
- activity against weeds (weeds [2]): very strong activity

Structure (SMILES): COc1cc(OC)nc(NC(=O)NS(=O)(=O)c2c(OCCF)cccc2C(F)(F)F)n1 [Example 4]
- activity against weeds (weeds [1]): very strong activity
- activity against weeds (weeds [2]): very strong activity

Structure (SMILES): COc1cc(OC)nc(NC(=O)NS(=O)(=O)c2c(C)cccc2OCCF)n1 [(24)]
- % damage Alopecurus (weeds [1]; [4]): 100%
- % damage Amaranthus (weeds [1]; [4]): 100%
- % damage Avena fatua (weeds [1]; [4]): 95%
- % damage Galium (weeds [1]; [4]): 100%
- % damage Setaria (weeds [1]; [4]): 95%
- % damage Xanthium (weeds [1]; [4]): 95%
- % damage Abutilon (weeds [2]; [4]): 100%
- % damage Alopecurus (weeds [2]; [4]): 100%
- % damage Amaranthus (weeds [2]; [4]): 100%
- % damage Avena fatua (weeds [2]; [4]): 90%
- % damage Galium (weeds [2]; [4]): 90%
- % damage Setaria (weeds [2]; [4]): 95%
- % damage Sinapis (weeds [2]; [4]): 100%

Structure (SMILES): COc1cc(OC)nc(NC(=O)NS(=O)(=O)c2c(C)cccc2OCCCF)n1 [(12)]
- % damage Abutilon (weeds [2]; [8]): 95%
- % damage Amaranthus (weeds [2]; [8]): 95%
- % damage Datura (weeds [2]; [8]): 95%
- % damage Echinochloa (weeds [2]; [8]): 90%

Structure (SMILES): COc1cc(OC)nc(NC(=O)NS(=O)(=O)c2c(C)cccc2OCCCF)n1 [Example 12]
- activity against weeds (weeds [2]): very strong activity

Structure (SMILES): CCc1cccc(OCCCF)c1S(=O)(=O)NC(=O)Nc1nc(Cl)cc(OC)n1 [Example 18]
- activity against weeds (weeds [2]): very strong activity

Structure (SMILES): CN(C)c1nc(NC(=O)NS(=O)(=O)c2c(OCCF)cccc2C(F)(F)F)nc(OCC(F)(F)F)n1 [Example 22]
- activity against weeds (weeds [2]): very strong activity

Structure (SMILES): COc1nc(C)nc(NC(=O)NS(=O)(=O)c2c(C)cccc2OCCCF)n1 [Example 13]
- activity against weeds (weeds [2]): very strong activity
